Type in all cases: cell-based
In data set [1] the test system is human lung fibroblast cell line (MRC-5). Nature of the data set: Cytotoxicity evaluation by MTT assay. Particulars: for cell survival: MRC-5 cells, 10 µg/mL, 48 h. The source says:
(§1) 3. Bioactivity and Toxicity Assays
(§2) Antimicrobial assay: According to the standard broth micro-dilution assays, following the Standards of European Committee on Antimicrobial Susceptibility Testing (v 7.3.1: Method for the determination of broth dilution minimum inhibitory concentrations of antifungal agents for yeasts) for Candida spp., and according to the standard broth micro-dilution assays, recommended by the National Committee for Clinical Laboratory Standards (M07-A8) for bacteria MIC values of compounds were determinate. Compounds were dissolved in DMSO at a concentration of 50 mg/mL, and the highest tested concentration was 250 µg/mL. The inoculums were 1x10^5 colony forming units (CFU/mL), for Candida species, and bacteria species, 5x10^5 colony forming units (CFU/mL). The MIC value was recorded as the lowest concentration that inhibited the growth after 24 h at 37 °C. Additionally, 5 µL from each well of 96 well plates was transferred to Luria Agar (LA) plates for bacteria and Sabouraud agar (SAB) plates for Candida spp. and incubated for an additional 24 h at 37 °C, to determine MBC (Minimum bactericidal/fungicidal concentration) values. In Table 1. Are labeled compounds showing a difference in MBC and previously determined MIC values.
Cytotoxicity evaluation: Antiproliferative activity was tested by MTT assay (3-(4,5-dimethylthiazol-2-yl)-2,5-diphenyltetrazoliumbromide) on a human lung fibroblast cell line (MRC-5; ATCC collection). Pre-grown (24 h) cell monolayers (1x10^4 cells per well) in RPMI 1640 medium supplemented with 100 μg/mL streptomycin, 100 U/mL penicillin, and 10% (v/v) FBS (all from Sigma, Munich, Germany) containing the tested compounds at concentrations ranging from 5 to 20 μg/mL were incubated in a humidified atmosphere of 95% air and 5% CO2 at 37 °C for 48 h. The cell viability (extent of MTT reduction) was measured spectrophotometrically at 540 nm using the Epoch 2000 multiplate reader, and the cell survival was expressed as a percentage of the control (untreated cells). Cytotoxicity was expressed as the concentration of the compound inhibiting cell growth by 50% (IC 50). […]
(In general: Formazan colour is commonly taken as a measure of viable cells.)

The next data set has as its system B. subtilis ATCC6633. Nature of the data set: Antimicrobial broth micro-dilution assay (MIC). To be noted: Bacillus subtilis; B. subtilis ATCC6633; 24 h at 37 °C; highest tested concentration 250 µg/mL; read-out: Minimum inhibitory concentration (MIC).
Excerpt: as §1
as §2, with “MIC values. […]” for “MIC values.”
In general terms: Broth dilution looks for growth in wells or tubes with falling amounts of substance.

In another data set the test system is P. aeruginosa ATCC27853. Nature of the data set: Antimicrobial broth micro-dilution assay (MIC). To be noted: Pseudomonas aeruginosa; P. aeruginosa ATCC27853; 24 h at 37 °C; highest tested concentration 250 µg/mL; read-out: Minimum inhibitory concentration (MIC).
Excerpt: as §1
as §2, with “MIC values. […]” for “MIC values.”

A further data set deals with E. coli NCTC9001. Nature of the data set: Antimicrobial broth micro-dilution assay (MIC). Particulars: Escherichia coli; E. coli NCTC9001; 24 h at 37 °C; highest tested concentration 250 µg/mL; read-out: Minimum inhibitory concentration (MIC).
Excerpt: as §1
as §2, with “MIC values. […]” for “MIC values.”

The subject of another data set is C. albicans ATCC10231. Nature of the data set: Antimicrobial broth micro-dilution assay (MIC). Particulars: Candida albicans; C. albicans ATCC10231; 24 h at 37 °C; highest tested concentration 250 µg/mL; read-out: Minimum inhibitory concentration (MIC).
Excerpt: as §1
as §2, with “MIC values. […]” for “MIC values.”

A further data set concerns S. aureus MRSA. Nature of the data set: Antimicrobial broth micro-dilution assay (MIC). Particulars: Staphylococcus aureus; S. aureus MRSA; 24 h at 37 °C; highest tested concentration 250 µg/mL; read-out: Minimum inhibitory concentration (MIC).
Excerpt: as §1
as §2, with “MIC values. […]” for “MIC values.”

The next data set deals with S. aureus ATCC25923. Nature of the data set: Antimicrobial broth micro-dilution assay (MIC). Particulars: Staphylococcus aureus; S. aureus ATCC25923; 24 h at 37 °C; highest tested concentration 250 µg/mL; read-out: Minimum inhibitory concentration (MIC).
Excerpt: as §1
as §2, with “MIC values. […]” for “MIC values.”

Data set [2] concerns two S. aureus strains and B. subtilis ATCC6633. Nature of the data set: Antimicrobial assay, Gram-positive bacteria. To be noted: from MIC values.
Excerpt: as §1
as §2, with “MIC values. […]” for “MIC values.”

Values after ≈ are worked out from the molar mass of the structure shown. A value given as a limit tells only on which side of the number the result lay.

Turning to `CC1=C(O)C(=O)C(C)=C(C(=O)OCCCC(C)C)C1=O` [compound 36], the cell survival entry in data set [1] is recorded as “over 60%”. The MIC in the data set with B. subtilis ATCC6633 is 31.2 µg/mL (≈ 111 µM); in the data set on P. aeruginosa ATCC27853, over 250 µg/mL; in the data set on E. coli NCTC9001, over 250 µg/mL; with C. albicans ATCC10231 it was 62.5 µg/mL (≈ 223 µM); in the data set with S. aureus MRSA, 31.2 µg/mL (≈ 111 µM); in the data set with S. aureus ATCC25923 it was 15.6 µg/mL (≈ 55.7 µM). Besides, the “improvement of antibacterial activity compared to sorrentanone (7)” value in data set [2] is “two- to four-fold improved activity”.
With `CC1=C(O)C(=O)C(C)=C(C(=O)OCc2ccccc2)C1=O` [compound 41], in data set [1], the cell survival result is “over 60%”. The “selectivity index (SI)” value in data set [1] (cytotoxicity versus antibiotic activity, calculation not described) was 0.77. For the same compound, the MIC in the data set with B. subtilis ATCC6633 is 15.6 µg/mL (≈ 54.5 µM); in the data set with P. aeruginosa ATCC27853, over 250 µg/mL; with E. coli NCTC9001 it was over 250 µg/mL; in the data set with C. albicans ATCC10231 it was 62.5 µg/mL (≈ 218 µM); in the data set on S. aureus MRSA, 15.6 µg/mL (≈ 54.5 µM); with S. aureus ATCC25923 it was 31.2 µg/mL (≈ 109 µM). Also, in data set [2], the “improvement of antibacterial activity compared to sorrentanone (7)” value is given as “two- to four-fold improved activity”.
